Experiment [1] deals with Histamine H1 receptor (Rattus norvegicus, UniProt P31390). The experiment can be described thus: Ability to displace [3H]-pyrilamine from H1 receptor in rat brain membrane. Format: cell membranes.
The species entered for experiment [2] is Homo sapiens. The experiment can be described thus: Concentration for inhibition of PAF-induced platelet aggregation in human platelet-rich plasma. Format: functional.

In ChEMBL document CHEMBL1126491, “Dual antagonists of platelet activating factor and histamine. 2. pyridine ring substitution of N-acetyl-4-(8-chloro-5,6-dihydro-11H-benzo[5,6]cyclohepta[1,2-b]pyridin-11-ylidene)piperidines” (Bioorg Med Chem Lett, 1993) one finds Ki and IC50 data, which are given here for 20 compounds.

Sequence of Histamine H1 receptor (P31390 whole entry): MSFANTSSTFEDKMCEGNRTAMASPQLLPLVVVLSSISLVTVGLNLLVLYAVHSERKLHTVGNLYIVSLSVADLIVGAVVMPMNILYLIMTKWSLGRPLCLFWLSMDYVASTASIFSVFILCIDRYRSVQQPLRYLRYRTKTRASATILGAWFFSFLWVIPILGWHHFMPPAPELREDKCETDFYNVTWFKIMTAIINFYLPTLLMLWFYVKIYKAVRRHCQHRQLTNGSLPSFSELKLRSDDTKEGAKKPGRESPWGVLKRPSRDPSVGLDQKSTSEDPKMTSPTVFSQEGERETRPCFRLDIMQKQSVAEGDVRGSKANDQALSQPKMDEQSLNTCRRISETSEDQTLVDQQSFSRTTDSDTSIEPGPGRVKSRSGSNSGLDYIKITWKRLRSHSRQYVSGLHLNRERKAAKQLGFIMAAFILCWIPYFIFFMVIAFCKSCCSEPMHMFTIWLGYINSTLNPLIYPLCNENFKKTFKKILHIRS

As usually defined, the Ki is the equilibrium dissociation constant of an inhibitor or competing ligand from its target. Read a low Ki as a stronger hold on the target. As usually defined, the IC50 is the point on the concentration scale where inhibition reaches its midpoint. For the compound `CC(=O)N1CCC(=C2c3ccc(Cl)cc3CCc3cc(-c4ccccc4)cnc32)CC1`, in experiment [1], the affinity, expressed as Ki, was 230 nM. Moreover, half-maximal inhibition in experiment [2] (IC50) was put at 1080 nM.

`CC(=O)N1CCC(=C2c3ccc(Cl)cc3CCc3ccc(C)nc32)CC1` returned a Ki in experiment [1] of 1030 nM. Further, it took 280 nM to reach half-maximal inhibition in experiment [2] (IC50).

In experiment [1], `COc1ccc2c(n1)C(=C1CCN(C(C)=O)CC1)c1ccc(Cl)cc1CC2` registered an inhibitory constant (Ki) of more than 10000 nM. For the same compound, in experiment [2], the midpoint of inhibition, the IC50, lay at 6000 nM.

For `CC(=O)N1CCC(=C2c3ccc(Cl)cc3CCc3c(Cl)ccnc32)CC1`, in experiment [1], the Ki came to 240 nM. Further, the midpoint of inhibition in experiment [2], the IC50, lay at 8000 nM.

As to `CC(=O)N1CCC(=C2c3ccc(Cl)cc3CCc3cc(Br)cnc32)CC1`, in experiment [1], the Ki worked out at 10 nM. Further, the half-inhibitory concentration (IC50) in experiment [2] was determined as 2290 nM.

Regarding `COc1ccnc2c1CCc1cc(Cl)ccc1C2=C1CCN(C(C)=O)CC1`, the Ki in experiment [1] was more than 10000 nM. Further, the IC50 in experiment [2] turned out to be 3040 nM.

In the case of `COc1cnc2c(c1)CCc1cc(Cl)ccc1C2=C1CCN(C(C)=O)CC1`, in experiment [1], the Ki was 430 nM. The same compound had an IC50 in experiment [2] of 1480 nM.

In turn, `CSc1cnc2c(c1)CCc1cc(Cl)ccc1C2=C1CCN(C(C)=O)CC1` returned a Ki in experiment [1] of 210 nM. Further, in experiment [2], the concentration for half-maximal inhibition (IC50) was determined as 600 nM.

As for `CC(=O)N1CCC(=C2c3ccc(Cl)cc3CCc3cc(Cl)cnc32)CC1`, the Ki in experiment [1] came to 100 nM. This compound had a half-inhibitory concentration (IC50) in experiment [2] of 940 nM.

The compound `CC(=O)N1CCC(=C2c3ccc(Cl)cc3CCc3c(O)ccnc32)CC1` registered a Ki in experiment [1] of more than 10000 nM. The same compound returned an IC50 in experiment [2] not below 50000 nM.

For `CC(=O)N1CCC(=C2c3ccc(Cl)cc3CCc3cc(C(C)O)cnc32)CC1` (centres undefined), the affinity in experiment [1] corresponds to a Ki of 40 nM. In experiment [2], this compound came in with a half-maximal inhibitory concentration (IC50) of 1070 nM.

In experiment [1], `CC(=O)c1cnc2c(c1)CCc1cc(Cl)ccc1C2=C1CCN(C(C)=O)CC1` gave an inhibition constant (Ki) of 1160 nM. In experiment [2], this compound registered a concentration for half-maximal inhibition (IC50) of 2080 nM.

The compound `CC(=O)N1CCC(=C2c3ccc(Cl)cc3CCc3cc(C=O)cnc32)CC1` displayed an inhibition constant Ki in experiment [1] of 700 nM. Moreover, 2730 nM corresponded to half-maximal inhibition in experiment [2] (IC50).

For `CC(=O)N1CCC(=C2c3ccc(Cl)cc3CCc3cc(CO)cnc32)CC1`, in experiment [1], the affinity, expressed as Ki, was 20 nM. This compound also registered an IC50 in experiment [2] of 690 nM.

`CC(=O)N1CCC(=C2c3ccc(Cl)cc3CCc3ccc(Cl)nc32)CC1` yielded a Ki in experiment [1] of 1360 nM. In experiment [2], this compound showed a 50% inhibitory concentration (IC50) of 610 nM.

`CC(=O)N1CCC(=C2c3ccc(Cl)cc3CCc3ccc(O)nc32)CC1` had a Ki in experiment [1] of more than 10000 nM. Besides, the IC50 in experiment [2] turned out to be 6750 nM.

In turn, `CC(=O)N1CCC(=C2c3ccc(Cl)cc3CCc3c(C)ccnc32)CC1` registered a Ki in experiment [1] of 230 nM. It took 6000 nM to reach half-maximal inhibition in experiment [2] (IC50).

`CC(=O)N1CCC(=C2c3ccc(Cl)cc3CCc3cc(C)cnc32)CC1` displayed a Ki in experiment [1] of 70 nM. Moreover, in experiment [2], the IC50 is 340 nM.

The compound `CC(=O)N1CCC(=C2c3ccc(Cl)cc3CCc3cc(O)cnc32)CC1` showed an inhibition constant (Ki) in experiment [1] of 1580 nM. In experiment [2], this compound had a concentration for half-maximal inhibition (IC50) of 4130 nM.

`CC(=O)N1CCC(=C2c3ccc(Cl)cc3CCc3cccnc32)CC1` [SCH-37370] gave an IC50 in experiment [2] of 610 nM.
